Experimental data published in PubChem BioAssay (NCI).
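96-well plates; 48 h exposure; 5 concentrations. Endpoints by linear interpolation between flanking doses. Not reached: highest tested concentration assigned. TGI: total growth inhibition.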

Experiments:
Assay in all cases: NCI tumour cell line growth inhibition, 48 h
T-47D breast = test system: T-47D breast
A498 renal = test system: A498 renal
BT-549 breast = test system: BT-549 breast
SK-MEL-5 melanoma = test system: SK-MEL-5 melanoma
NCI-H226 lung = test system: NCI-H226 lung
HS 578T breast = test system: HS 578T breast
RXF 393 renal = test system: RXF 393 renal
LOX IMVI melanoma = test system: LOX IMVI melanoma
MDA-MB-435 = test system: MDA-MB-435
786-0 renal = test system: 786-0 renal
MDA-MB-231 breast = test system: MDA-MB-231 breast
CCRF-CEM leukemia = test system: CCRF-CEM leukemia
HCT-116 colon = test system: HCT-116 colon
DU-145 prostate = test system: DU-145 prostate
SNB-19 CNS = test system: SNB-19 CNS
HT29 colon = test system: HT29 colon
A549 NSCLC = test system: A549 NSCLC
NCI/ADR-RES ovarian = test system: NCI/ADR-RES ovarian
HOP-62 NSCLC = test system: HOP-62 NSCLC
SN12C renal = test system: SN12C renal
SK-MEL-2 melanoma = test system: SK-MEL-2 melanoma
NCI-H23 lung = test system: NCI-H23 lung
TK-10 renal = test system: TK-10 renal
ACHN renal = test system: ACHN renal
SF-539 CNS = test system: SF-539 CNS
SF-268 CNS = test system: SF-268 CNS
SK-MEL-28 melanoma = test system: SK-MEL-28 melanoma
MCF7 breast = test system: MCF7 breast
NCI-H460 lung = test system: NCI-H460 lung
UACC-257 melanoma = test system: UACC-257 melanoma
HCT-15 colon = test system: HCT-15 colon
SF-295 CNS = test system: SF-295 CNS
M14 melanoma = test system: M14 melanoma
COLO 205 colon = test system: COLO 205 colon
SK-OV-3 ovarian = test system: SK-OV-3 ovarian
IGROV1 ovarian = test system: IGROV1 ovarian
OVCAR-4 ovarian = test system: OVCAR-4 ovarian
HCC-2998 colon = test system: HCC-2998 colon
OVCAR-3 ovarian = test system: OVCAR-3 ovarian
NCI-H522 lung = test system: NCI-H522 lung
MALME-3M melanoma = test system: MALME-3M melanoma
EKVX NSCLC = test system: EKVX NSCLC
MDA-N = test system: MDA-N
RPMI-8226 leukemia = test system: RPMI-8226 leukemia
MOLT-4 leukemia = test system: MOLT-4 leukemia
SW-620 colon = test system: SW-620 colon
PC-3 prostate = test system: PC-3 prostate
OVCAR-5 ovarian = test system: OVCAR-5 ovarian
SNB-75 CNS = test system: SNB-75 CNS
U251 CNS = test system: U251 CNS
KM12 colon = test system: KM12 colon
UO-31 renal = test system: UO-31 renal
CAKI-1 renal = test system: CAKI-1 renal
OVCAR-8 ovarian = test system: OVCAR-8 ovarian
UACC-62 melanoma = test system: UACC-62 melanoma
HOP-92 NSCLC = test system: HOP-92 NSCLC
HL-60(TB) leukemia = test system: HL-60(TB) leukemia
SR leukemia = test system: SR leukemia
K-562 leukemia = test system: K-562 leukemia

[N-]=[N+]=NC1(c2ccccc2)C(=O)c2cccc3c4ccccc4n(c23)C1=O (stereo not given)
TGI (T-47D breast): > 100 µM | TGI (A498 renal): > 100 µM | TGI (BT-549 breast): > 100 µM | TGI (SK-MEL-5 melanoma): > 100 µM | TGI (NCI-H226 lung): > 100 µM | TGI (HS 578T breast): > 100 µM | TGI (RXF 393 renal): > 100 µM | TGI (LOX IMVI melanoma): > 100 µM | TGI (MDA-MB-435): 92.8 µM | TGI (786-0 renal): > 100 µM | TGI (MDA-MB-231 breast): > 100 µM | TGI (CCRF-CEM leukemia): > 100 µM | TGI (HCT-116 colon): > 100 µM | TGI (DU-145 prostate): > 100 µM | TGI (SNB-19 CNS): > 100 µM | TGI (HT29 colon): 50.8 µM | TGI (A549 NSCLC): > 100 µM | TGI (NCI/ADR-RES ovarian): > 100 µM | TGI (HOP-62 NSCLC): > 100 µM | TGI (SN12C renal): > 100 µM | TGI (SK-MEL-2 melanoma): > 100 µM | TGI (NCI-H23 lung): > 100 µM | TGI (TK-10 renal): > 100 µM | TGI (ACHN renal): > 100 µM | TGI (SF-539 CNS): > 100 µM | TGI (SF-268 CNS): > 100 µM | TGI (SK-MEL-28 melanoma): > 100 µM | TGI (MCF7 breast): > 100 µM | TGI (NCI-H460 lung): > 100 µM | TGI (UACC-257 melanoma): > 100 µM | TGI (HCT-15 colon): > 100 µM | TGI (SF-295 CNS): > 100 µM | TGI (M14 melanoma): > 100 µM | TGI (COLO 205 colon): 38.7 µM | TGI (SK-OV-3 ovarian): > 100 µM | TGI (IGROV1 ovarian): > 100 µM | TGI (OVCAR-4 ovarian): > 100 µM | TGI (HCC-2998 colon): > 100 µM | TGI (OVCAR-3 ovarian): > 100 µM | TGI (NCI-H522 lung): > 100 µM | TGI (MALME-3M melanoma): > 100 µM | TGI (EKVX NSCLC): > 100 µM | TGI (MDA-N): > 100 µM | TGI (RPMI-8226 leukemia): > 100 µM | TGI (MOLT-4 leukemia): > 100 µM | TGI (SW-620 colon): > 100 µM | TGI (PC-3 prostate): > 100 µM | TGI (OVCAR-5 ovarian): > 100 µM | TGI (SNB-75 CNS): > 100 µM | TGI (U251 CNS): > 100 µM | TGI (KM12 colon): > 100 µM | TGI (UO-31 renal): > 100 µM | TGI (CAKI-1 renal): > 100 µM | TGI (OVCAR-8 ovarian): > 100 µM | TGI (UACC-62 melanoma): > 100 µM

O=C1CCCSCCCC(=O)CCCSCCC1
TGI (T-47D breast): > 100 µM | TGI (BT-549 breast): > 100 µM | TGI (SK-MEL-5 melanoma): > 100 µM | TGI (LOX IMVI melanoma): > 100 µM | TGI (MDA-MB-435): > 100 µM | TGI (786-0 renal): > 100 µM | TGI (MDA-MB-231 breast): > 100 µM | TGI (CCRF-CEM leukemia): > 100 µM | TGI (HOP-92 NSCLC): > 100 µM | TGI (HCT-116 colon): > 100 µM | TGI (DU-145 prostate): > 100 µM | TGI (SNB-19 CNS): > 100 µM | TGI (HT29 colon): > 100 µM | TGI (A549 NSCLC): > 100 µM | TGI (NCI/ADR-RES ovarian): > 100 µM | TGI (HOP-62 NSCLC): > 100 µM | TGI (SN12C renal): > 100 µM | TGI (NCI-H23 lung): > 100 µM | TGI (TK-10 renal): > 100 µM | TGI (HL-60(TB) leukemia): > 100 µM | TGI (SF-539 CNS): > 100 µM | TGI (SF-268 CNS): > 100 µM | TGI (SK-MEL-28 melanoma): > 100 µM | TGI (MCF7 breast): > 100 µM | TGI (NCI-H460 lung): > 100 µM | TGI (UACC-257 melanoma): > 100 µM | TGI (SR leukemia): > 100 µM | TGI (HCT-15 colon): > 100 µM | TGI (K-562 leukemia): > 100 µM | TGI (SF-295 CNS): > 100 µM | TGI (M14 melanoma): > 100 µM | TGI (COLO 205 colon): > 100 µM | TGI (SK-OV-3 ovarian): > 100 µM | TGI (IGROV1 ovarian): > 100 µM | TGI (OVCAR-4 ovarian): > 100 µM | TGI (HCC-2998 colon): > 100 µM | TGI (OVCAR-3 ovarian): > 100 µM | TGI (NCI-H522 lung): > 100 µM | TGI (EKVX NSCLC): > 100 µM | TGI (MDA-N): > 100 µM | TGI (MOLT-4 leukemia): > 100 µM | TGI (SW-620 colon): > 100 µM | TGI (PC-3 prostate): > 100 µM | TGI (OVCAR-5 ovarian): > 100 µM | TGI (SNB-75 CNS): > 100 µM | TGI (U251 CNS): > 100 µM | TGI (KM12 colon): > 100 µM | TGI (UO-31 renal): > 100 µM | TGI (OVCAR-8 ovarian): > 100 µM | TGI (UACC-62 melanoma): > 100 µM
